Where two headings read alike, the source gives them in different places.
What was measured:
[1] = target: AEA-DA lipid probe targets in Neuro2a cells (Mus musculus, UniProt O89079)
[2] = target: AEA-DA lipid probe targets in Neuro2a cells (Mus musculus, UniProt P18242)
[3] = target: AEA-DA lipid probe targets in Neuro2a cells (Mus musculus, UniProt Q60715)
[4] = target: T1, AEA-DA lipid probe targets in Neuro2a cells (Mus musculus, UniProt Q80WJ7)
T1 sequence (Q80WJ7 1-579): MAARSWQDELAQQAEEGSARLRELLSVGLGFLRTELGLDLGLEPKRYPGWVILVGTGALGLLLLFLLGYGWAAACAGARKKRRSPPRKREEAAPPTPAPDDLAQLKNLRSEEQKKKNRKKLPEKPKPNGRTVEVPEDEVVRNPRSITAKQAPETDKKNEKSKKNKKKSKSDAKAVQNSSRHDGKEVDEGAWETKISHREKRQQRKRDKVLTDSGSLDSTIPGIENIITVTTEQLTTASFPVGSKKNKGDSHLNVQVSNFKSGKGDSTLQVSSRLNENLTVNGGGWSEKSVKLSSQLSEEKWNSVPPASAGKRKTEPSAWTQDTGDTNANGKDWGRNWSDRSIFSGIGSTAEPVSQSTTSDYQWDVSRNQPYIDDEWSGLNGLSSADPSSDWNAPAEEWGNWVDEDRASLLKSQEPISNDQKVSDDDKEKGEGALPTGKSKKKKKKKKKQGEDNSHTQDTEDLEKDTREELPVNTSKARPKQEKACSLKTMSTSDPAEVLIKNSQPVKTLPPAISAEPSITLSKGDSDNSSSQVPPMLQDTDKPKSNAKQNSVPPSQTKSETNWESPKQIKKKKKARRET

[5] = target: T2, AEA-DA lipid probe targets in Neuro2a cells (Mus musculus, UniProt Q8CAQ8)
T2 sequence (Q8CAQ8 34-757): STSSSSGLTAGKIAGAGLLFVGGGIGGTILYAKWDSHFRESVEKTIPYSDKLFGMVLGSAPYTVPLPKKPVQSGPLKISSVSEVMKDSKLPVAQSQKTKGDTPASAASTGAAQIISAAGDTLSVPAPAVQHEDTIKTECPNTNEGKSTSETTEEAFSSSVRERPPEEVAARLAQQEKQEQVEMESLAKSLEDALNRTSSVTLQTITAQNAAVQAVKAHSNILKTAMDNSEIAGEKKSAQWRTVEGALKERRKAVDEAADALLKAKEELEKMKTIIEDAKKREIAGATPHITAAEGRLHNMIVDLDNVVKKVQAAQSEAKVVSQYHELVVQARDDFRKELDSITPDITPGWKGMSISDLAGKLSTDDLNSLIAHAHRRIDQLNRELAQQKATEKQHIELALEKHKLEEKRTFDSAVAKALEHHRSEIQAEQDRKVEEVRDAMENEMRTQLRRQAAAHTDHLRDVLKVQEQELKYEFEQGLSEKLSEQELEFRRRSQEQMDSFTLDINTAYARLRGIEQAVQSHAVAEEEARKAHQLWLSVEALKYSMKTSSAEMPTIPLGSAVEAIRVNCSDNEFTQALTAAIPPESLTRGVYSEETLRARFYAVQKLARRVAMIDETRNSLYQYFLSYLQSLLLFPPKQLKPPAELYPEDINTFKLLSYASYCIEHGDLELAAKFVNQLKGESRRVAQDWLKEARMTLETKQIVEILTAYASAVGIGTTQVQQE

[6] = target: T3, AEA-DA lipid probe targets in Neuro2a cells (Mus musculus, UniProt Q8R2Y8)
T3 sequence (Q8R2Y8 1-181): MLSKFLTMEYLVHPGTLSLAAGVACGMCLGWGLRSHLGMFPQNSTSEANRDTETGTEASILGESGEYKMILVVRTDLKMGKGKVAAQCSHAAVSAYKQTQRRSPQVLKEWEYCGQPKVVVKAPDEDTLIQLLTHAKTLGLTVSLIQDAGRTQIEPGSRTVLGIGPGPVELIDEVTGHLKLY

[7] = target: T4, AEA-DA lipid probe targets in Neuro2a cells (Mus musculus, UniProt Q8VDP6)
T4 sequence (Q8VDP6 1-213): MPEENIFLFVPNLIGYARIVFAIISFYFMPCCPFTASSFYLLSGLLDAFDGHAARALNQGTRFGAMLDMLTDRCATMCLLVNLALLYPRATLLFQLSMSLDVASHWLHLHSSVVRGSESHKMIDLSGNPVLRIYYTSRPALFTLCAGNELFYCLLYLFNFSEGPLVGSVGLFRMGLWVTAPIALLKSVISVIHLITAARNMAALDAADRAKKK

[8] = target: T5, AEA-DA lipid probe targets in Neuro2a cells (Mus musculus, UniProt Q9JMF7)
T5 sequence (Q9JMF7 1-238): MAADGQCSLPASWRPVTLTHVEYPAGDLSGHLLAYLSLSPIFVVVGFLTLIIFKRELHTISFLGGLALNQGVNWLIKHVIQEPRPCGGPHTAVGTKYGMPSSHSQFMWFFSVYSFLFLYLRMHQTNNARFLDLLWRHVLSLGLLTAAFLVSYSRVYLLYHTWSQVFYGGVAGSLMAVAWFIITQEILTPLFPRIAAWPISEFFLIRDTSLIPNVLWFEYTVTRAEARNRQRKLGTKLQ

AEA-DA lipid probe targets in Neuro2a cells (Mus musculus, UniProt O89079), sequence (O89079 whole entry): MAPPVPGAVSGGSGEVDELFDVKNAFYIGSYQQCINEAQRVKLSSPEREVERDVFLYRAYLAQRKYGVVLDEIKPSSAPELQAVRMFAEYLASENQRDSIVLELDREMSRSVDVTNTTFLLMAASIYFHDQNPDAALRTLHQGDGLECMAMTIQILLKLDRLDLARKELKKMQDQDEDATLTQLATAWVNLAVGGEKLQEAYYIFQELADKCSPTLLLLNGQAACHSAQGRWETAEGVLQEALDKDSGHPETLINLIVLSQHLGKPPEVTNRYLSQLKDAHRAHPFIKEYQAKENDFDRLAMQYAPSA
AEA-DA lipid probe targets in Neuro2a cells (Mus musculus, UniProt P18242), sequence (P18242 65-410): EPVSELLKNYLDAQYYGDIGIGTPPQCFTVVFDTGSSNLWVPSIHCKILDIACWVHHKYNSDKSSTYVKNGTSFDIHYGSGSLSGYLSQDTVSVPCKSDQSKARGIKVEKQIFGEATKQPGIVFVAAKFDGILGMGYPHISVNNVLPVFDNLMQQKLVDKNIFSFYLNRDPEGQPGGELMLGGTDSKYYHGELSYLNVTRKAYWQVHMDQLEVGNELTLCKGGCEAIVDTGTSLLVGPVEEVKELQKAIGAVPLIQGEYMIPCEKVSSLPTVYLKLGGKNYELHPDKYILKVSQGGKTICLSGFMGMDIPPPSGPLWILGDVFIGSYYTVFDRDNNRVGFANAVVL
AEA-DA lipid probe targets in Neuro2a cells (Mus musculus, UniProt Q60715), sequence (Q60715 18-534): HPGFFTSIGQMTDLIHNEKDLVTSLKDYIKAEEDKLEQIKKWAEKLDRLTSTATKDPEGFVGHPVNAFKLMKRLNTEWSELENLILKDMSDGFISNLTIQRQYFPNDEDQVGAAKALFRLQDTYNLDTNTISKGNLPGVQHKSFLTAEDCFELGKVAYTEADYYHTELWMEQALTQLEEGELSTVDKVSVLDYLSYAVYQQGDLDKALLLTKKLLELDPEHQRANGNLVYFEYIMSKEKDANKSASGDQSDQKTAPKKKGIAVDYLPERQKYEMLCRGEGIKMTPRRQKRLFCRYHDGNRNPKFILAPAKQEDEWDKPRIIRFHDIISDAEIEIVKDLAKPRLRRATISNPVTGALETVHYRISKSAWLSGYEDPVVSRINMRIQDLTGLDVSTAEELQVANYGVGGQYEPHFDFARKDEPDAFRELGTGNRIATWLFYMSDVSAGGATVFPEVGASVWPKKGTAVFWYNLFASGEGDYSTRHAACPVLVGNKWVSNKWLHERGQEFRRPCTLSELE

CCCCC/C=C\C/C=C\C/C=C\C/C=C\CCCC(=O)NCCO [AEA, anandamide, reference compound]
SILAC ratio Cope ([1]; competitor 200 μM): 0.9 | SILAC ratio, Ctsd ([2]; competitor 200 μM): 1.2 | SILAC ratio P4ha1 ([3]; competitor 200 μM): 1.0 | SILAC ratio Mtdh ([4]; competitor 200 μM): 1.7 | SILAC ratio Immt ([5]; competitor 200 μM): 1.2 | SILAC ratio Ptrh2 ([6]; competitor 200 μM): 1.5 | SILAC ratio, Cdipt ([7]; competitor 200 μM): 1.8 | SILAC ratio, Dolpp1 ([8]; competitor 200 μM): 2.2

O=C(/C=C/c1cccnc1)NCCCCC1CCN(C(=O)c2ccccc2)CC1 [FK-866, reference compound]
SILAC ratio Cope ([1]; competitor 25 μM): 1.5 | SILAC ratio, Ctsd ([2]; competitor 25 μM): 1.0 | SILAC ratio P4ha1 ([3]; competitor 25 μM): 1.1 | SILAC ratio Mtdh ([4]; competitor 25 μM): 1.2 | SILAC ratio Immt ([5]; competitor 25 μM): 1.1 | SILAC ratio Ptrh2 ([6]; competitor 25 μM): 1.0 | SILAC ratio, Cdipt ([7]; competitor 25 μM): 1.1 | SILAC ratio, Dolpp1 ([8]; competitor 25 μM): 1.2

CN1CCN(C(=O)c2c(-c3ccccc3)c3cc([N+](=O)[O-])ccc3n2C)CC1 [KML110, (1-Methyl-5-nitro-3-phenyl-1H-indol-2-yl)(4-methylpiperazin-1-yl)methanone]
SILAC ratio, Ctsd ([2]; competitor 25 μM): 1.4 | SILAC ratio Mtdh ([4]; competitor 25 μM): 1.5 | SILAC ratio Immt ([5]; competitor 25 μM): 1.3 | SILAC ratio Ptrh2 ([6]; competitor 25 μM): 1.0 | SILAC ratio, Cdipt ([7]; competitor 25 μM): 0.9 | SILAC ratio, Dolpp1 ([8]; competitor 25 μM): 1.6

CN1CCN(C(=O)c2[nH]c3ccc([N+](=O)[O-])cc3c2-c2ccccc2)CC1 [MJN228, (4-Methylpiperazin-1-yl)(5-nitro-3-phenyl-1H-indol-2-yl)methanone]
SILAC ratio Cope ([1]; competitor 25 μM): 1.2 | SILAC ratio, Ctsd ([2]; competitor 10 μM): 1.2 | SILAC ratio, Ctsd ([2]; competitor 25 μM): 1.2 | SILAC ratio, Ctsd ([2]; competitor 50 μM): 1.2 | SILAC ratio, Ctsd ([2]; competitor 100 μM): 1.1 | SILAC ratio P4ha1 ([3]; competitor 10 μM): 1.3 | SILAC ratio Mtdh ([4]; competitor 10 μM): 1.3 | SILAC ratio Mtdh ([4]; competitor 25 μM): 1.5 | SILAC ratio Mtdh ([4]; competitor 50 μM): 1.6 | SILAC ratio Mtdh ([4]; competitor 100 μM): 1.9 | SILAC ratio Immt ([5]; competitor 10 μM): 1.1 | SILAC ratio Immt ([5]; competitor 25 μM): 1.2 | SILAC ratio Immt ([5]; competitor 50 μM): 1.1 | SILAC ratio Immt ([5]; competitor 100 μM): 1.4 | SILAC ratio Ptrh2 ([6]; competitor 10 μM): 1.1 | SILAC ratio Ptrh2 ([6]; competitor 25 μM): 1.0 | SILAC ratio Ptrh2 ([6]; competitor 50 μM): 1.2 | SILAC ratio Ptrh2 ([6]; competitor 100 μM): 1.1 | SILAC ratio, Cdipt ([7]; competitor 10 μM): 1.0 | SILAC ratio, Cdipt ([7]; competitor 25 μM): 1.0 | SILAC ratio, Cdipt ([7]; competitor 50 μM): 0.7 | SILAC ratio, Cdipt ([7]; competitor 100 μM): 0.8 | SILAC ratio, Dolpp1 ([8]; competitor 10 μM): 1.2 | SILAC ratio, Dolpp1 ([8]; competitor 25 μM): 1.6 | SILAC ratio, Dolpp1 ([8]; competitor 50 μM): 1.9 | SILAC ratio, Dolpp1 ([8]; competitor 100 μM): 3.3

C=CCN(C)CCCCCCOc1ccc(C(=O)c2ccc(Br)cc2)c(F)c1 [Ro 48-8071, reference compound]
SILAC ratio Cope ([1]; competitor 25 μM): 1.1 | SILAC ratio, Ctsd ([2]; competitor 25 μM): 0.5 | SILAC ratio P4ha1 ([3]; competitor 25 μM): 1.1 | SILAC ratio Mtdh ([4]; competitor 25 μM): 1.2 | SILAC ratio Immt ([5]; competitor 25 μM): 1.0 | SILAC ratio Ptrh2 ([6]; competitor 25 μM): 0.9 | SILAC ratio, Cdipt ([7]; competitor 25 μM): 0.7 | SILAC ratio, Dolpp1 ([8]; competitor 25 μM): 1.3
